Details: Liquid, Vibrating tube method

CCCCCCCCCCCC [dodecane]
Details | mass density [kg/m3]
283.29 K, 100 kPa | 756
283.29 K, 1000 kPa | 757
283.29 K, 3000 kPa | 758
283.3 K, 5000 kPa | 760
283.3 K, 10000 kPa | 763
283.3 K, 30000 kPa | 775
283.3 K, 40000 kPa | 780
283.3 K, 50000 kPa | 785
283.3 K, 60000 kPa | 790
283.31 K, 20000 kPa | 769
283.31 K, 70000 kPa | 795
283.32 K, 80000 kPa | 799
283.32 K, 90000 kPa | 803
293.17 K, 100 kPa | 749
293.18 K, 1000 kPa | 750
293.19 K, 5000 kPa | 753
293.19 K, 10000 kPa | 756
293.19 K, 20000 kPa | 763
293.19 K, 30000 kPa | 769
293.19 K, 40000 kPa | 774
293.19 K, 50000 kPa | 780
293.19 K, 70000 kPa | 789
293.19 K, 80000 kPa | 794
293.19 K, 90000 kPa | 798
293.19 K, 100000 kPa | 802
293.2 K, 60000 kPa | 785
303.04 K, 30000 kPa | 762
303.04 K, 100000 kPa | 797
303.05 K, 100 kPa | 742
303.05 K, 1000 kPa | 743
303.05 K, 5000 kPa | 746
303.05 K, 20000 kPa | 756
303.05 K, 50000 kPa | 774
303.05 K, 60000 kPa | 779
303.05 K, 70000 kPa | 784
303.05 K, 80000 kPa | 789
303.05 K, 90000 kPa | 793
303.06 K, 10000 kPa | 749
303.06 K, 40000 kPa | 768
312.89 K, 100 kPa | 736
312.89 K, 1000 kPa | 737
312.9 K, 5000 kPa | 740
312.9 K, 10000 kPa | 744
312.9 K, 20000 kPa | 751
312.9 K, 30000 kPa | 757
312.9 K, 40000 kPa | 763
312.9 K, 50000 kPa | 769
312.9 K, 60000 kPa | 774
312.9 K, 70000 kPa | 780
312.9 K, 80000 kPa | 784
312.9 K, 90000 kPa | 789
312.9 K, 100000 kPa | 793
322.83 K, 100 kPa | 727
322.83 K, 1000 kPa | 728
322.83 K, 5000 kPa | 732
322.83 K, 10000 kPa | 736
322.83 K, 20000 kPa | 743
322.83 K, 30000 kPa | 750
322.83 K, 40000 kPa | 756
322.83 K, 50000 kPa | 762
322.83 K, 60000 kPa | 768
322.83 K, 70000 kPa | 773
322.83 K, 80000 kPa | 778
322.83 K, 90000 kPa | 783
322.83 K, 100000 kPa | 787
332.74 K, 100 kPa | 720
332.74 K, 1000 kPa | 721
332.74 K, 5000 kPa | 725
332.74 K, 10000 kPa | 729
332.74 K, 20000 kPa | 737
332.74 K, 30000 kPa | 744
332.74 K, 40000 kPa | 750
332.74 K, 50000 kPa | 757
332.74 K, 60000 kPa | 762
332.74 K, 70000 kPa | 768
332.74 K, 80000 kPa | 773
332.74 K, 90000 kPa | 778
332.75 K, 100000 kPa | 782
342.67 K, 100 kPa | 713
342.67 K, 1000 kPa | 714
342.67 K, 5000 kPa | 718
342.67 K, 10000 kPa | 722
342.67 K, 20000 kPa | 731
342.67 K, 30000 kPa | 738
342.67 K, 40000 kPa | 745
342.67 K, 50000 kPa | 751
342.67 K, 60000 kPa | 757
342.67 K, 69990 kPa | 763
342.67 K, 80000 kPa | 768
342.67 K, 90000 kPa | 773
342.67 K, 100000 kPa | 778
352.58 K, 100 kPa | 707
352.58 K, 1000 kPa | 708
352.58 K, 5000 kPa | 712
352.58 K, 10000 kPa | 716
352.58 K, 20000 kPa | 725
352.58 K, 30000 kPa | 733
352.58 K, 40000 kPa | 740
352.58 K, 50000 kPa | 747
352.58 K, 60000 kPa | 753
352.58 K, 70000 kPa | 759
352.58 K, 80000 kPa | 764
352.58 K, 90000 kPa | 769
352.58 K, 100000 kPa | 774
362.48 K, 5000 kPa | 704
362.48 K, 10000 kPa | 709
362.48 K, 20000 kPa | 718
362.48 K, 30000 kPa | 726
362.48 K, 50000 kPa | 741
362.48 K, 80000 kPa | 759
362.48 K, 90000 kPa | 764
362.49 K, 100 kPa | 699
362.49 K, 1000 kPa | 700
362.49 K, 40000 kPa | 734
362.49 K, 60000 kPa | 747
362.49 K, 70000 kPa | 753
362.49 K, 100000 kPa | 769
